Where “and” joins values, the source holds several entries; their conditions need not be identical. Equal values may be shown once.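 The compound was tested at five concentrations on cells cultured in 96-well plates, with a 48-hour exposure period. At the GI50, growth is halved. Definition used: TGI = concentration required for complete inhibition of growth.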
Legend:
Experiment in all cases: DTP human tumour cell line panel, 48 h; in the data active means GI50 below about 0.43 µM; inactive means the rest
786-0 renal = test system: 786-0 renal
A549 NSCLC = test system: A549 NSCLC
ACHN renal = test system: ACHN renal
CAKI-1 renal = test system: CAKI-1 renal
CCRF-CEM leukemia = test system: CCRF-CEM leukemia
COLO 205 colon = test system: COLO 205 colon
DLD-1 colon = test system: DLD-1 colon
DMS 114 small cell lung = test system: DMS 114 small cell lung
EKVX NSCLC = test system: EKVX NSCLC
HCC-2998 colon = test system: HCC-2998 colon
HCT-116 colon = test system: HCT-116 colon
HCT-15 colon = test system: HCT-15 colon
HL-60(TB) leukemia = test system: HL-60(TB) leukemia
HOP-18 NSCLC = test system: HOP-18 NSCLC
HOP-62 NSCLC = test system: HOP-62 NSCLC
HOP-92 NSCLC = test system: HOP-92 NSCLC
HT29 colon = test system: HT29 colon
IGROV1 ovarian = test system: IGROV1 ovarian
K-562 leukemia = test system: K-562 leukemia
KM12 colon = test system: KM12 colon
KM20L2 colon = test system: KM20L2 colon
LOX IMVI melanoma = test system: LOX IMVI melanoma
LXFL 529 NSCLC = test system: LXFL 529 NSCLC
M14 melanoma = test system: M14 melanoma
M19-MEL melanoma = test system: M19-MEL melanoma
MALME-3M melanoma = test system: MALME-3M melanoma
MOLT-4 leukemia = test system: MOLT-4 leukemia
NCI-H226 lung = test system: NCI-H226 lung
NCI-H23 lung = test system: NCI-H23 lung
NCI-H460 lung = test system: NCI-H460 lung
OVCAR-3 ovarian = test system: OVCAR-3 ovarian
OVCAR-4 ovarian = test system: OVCAR-4 ovarian
OVCAR-5 ovarian = test system: OVCAR-5 ovarian
OVCAR-8 ovarian = test system: OVCAR-8 ovarian
RXF 393 renal = test system: RXF 393 renal
RXF-631 renal = test system: RXF-631 renal
SF-268 CNS = test system: SF-268 CNS
SF-295 CNS = test system: SF-295 CNS
SF-539 CNS = test system: SF-539 CNS
SK-MEL-2 melanoma = test system: SK-MEL-2 melanoma
SK-MEL-28 melanoma = test system: SK-MEL-28 melanoma
SK-MEL-5 melanoma = test system: SK-MEL-5 melanoma
SK-OV-3 ovarian = test system: SK-OV-3 ovarian
SN12C renal = test system: SN12C renal
SNB-19 CNS = test system: SNB-19 CNS
SNB-78 CNS = test system: SNB-78 CNS
SR leukemia = test system: SR leukemia
SW-620 colon = test system: SW-620 colon
U251 CNS = test system: U251 CNS
UACC-257 melanoma = test system: UACC-257 melanoma
UACC-62 melanoma = test system: UACC-62 melanoma
UO-31 renal = test system: UO-31 renal
A498 renal = test system: A498 renal
BT-549 breast = test system: BT-549 breast
DU-145 prostate = test system: DU-145 prostate
HS 578T breast = test system: HS 578T breast
MCF7 breast = test system: MCF7 breast
MDA-MB-231 breast = test system: MDA-MB-231 breast
MDA-MB-435 = test system: MDA-MB-435
MDA-N = test system: MDA-N
NCI-H522 lung = test system: NCI-H522 lung
NCI/ADR-RES ovarian = test system: NCI/ADR-RES ovarian
PC-3 prostate = test system: PC-3 prostate
RPMI-8226 leukemia = test system: RPMI-8226 leukemia
SNB-75 CNS = test system: SNB-75 CNS
T-47D breast = test system: T-47D breast
TK-10 renal = test system: TK-10 renal
XF 498 CNS = test system: XF 498 CNS

CC(C)(C)c1cc(CCC(=O)Nc2ccc(Cl)cc2Cl)nc(N)n1
> 100 µM: TGI (786-0 renal) | TGI (A549 NSCLC) | TGI (ACHN renal) | TGI (CAKI-1 renal) | TGI (CCRF-CEM leukemia) | TGI (COLO 205 colon) | TGI (DLD-1 colon) | TGI (DMS 114 small cell lung) | TGI (EKVX NSCLC) | TGI (HCC-2998 colon) | TGI (HCT-116 colon) | TGI (HCT-15 colon) | TGI (HL-60(TB) leukemia) | TGI (HOP-18 NSCLC) | TGI (HOP-62 NSCLC) | TGI (HOP-92 NSCLC) | TGI (HT29 colon) | TGI (IGROV1 ovarian) | TGI (K-562 leukemia) | TGI (KM12 colon) | TGI (KM20L2 colon) | TGI (LOX IMVI melanoma) | TGI (LXFL 529 NSCLC) | TGI (M14 melanoma) | TGI (M19-MEL melanoma) | TGI (MALME-3M melanoma) | TGI (MOLT-4 leukemia) | TGI (NCI-H226 lung) | TGI (NCI-H23 lung) | TGI (NCI-H460 lung) | TGI (OVCAR-3 ovarian) | TGI (OVCAR-4 ovarian) | TGI (OVCAR-5 ovarian) | TGI (OVCAR-8 ovarian) | TGI (RXF 393 renal) | TGI (RXF-631 renal) | TGI (SF-268 CNS) | TGI (SF-295 CNS) | TGI (SF-539 CNS) | TGI (SK-MEL-2 melanoma) | TGI (SK-MEL-28 melanoma) | TGI (SK-MEL-5 melanoma) | TGI (SK-OV-3 ovarian) | TGI (SN12C renal) | TGI (SNB-19 CNS) | TGI (SNB-78 CNS) | TGI (SR leukemia) | TGI (SW-620 colon) | TGI (U251 CNS) | TGI (UACC-257 melanoma) | TGI (UACC-62 melanoma) | TGI (UO-31 renal)

Cc1cc(NC(=O)NC(=O)c2ccccc2N(C)C)ccc1Oc1ncc(Br)cn1
0.281 µM: TGI (MDA-N)
0.408 µM and 0.587 µM: TGI (NCI-H522 lung)
39.4 µM: TGI (RPMI-8226 leukemia)
> 71.1 µM: TGI (SW-620 colon)
0.588 µM and 0.402 µM: GI50 (CAKI-1 renal)
> 67.5 µM: TGI (OVCAR-5 ovarian)
55.5 µM: TGI (NCI-H460 lung)
11.8 µM: TGI (HCC-2998 colon)
> 90 µM: TGI (NCI-H226 lung)
16.8 µM: TGI (SK-OV-3 ovarian)
57.9 µM: TGI (HOP-62 NSCLC)
11.1 µM: TGI (OVCAR-3 ovarian)
39.7 µM: TGI (MOLT-4 leukemia)
44.6 µM: TGI (786-0 renal)
29.2 µM: TGI (MCF7 breast)
active: GI50 (786-0 renal) 0.322 µM | GI50 (ACHN renal) 0.404 µM | GI50 (COLO 205 colon) 0.266 µM | GI50 (HCT-116 colon) 0.389 µM | GI50 (HL-60(TB) leukemia) 0.0879 µM | GI50 (IGROV1 ovarian) 0.356 µM | GI50 (K-562 leukemia) 0.21 µM | GI50 (NCI-H460 lung) 0.343 µM | GI50 (NCI-H522 lung) 0.164 µM | GI50 (RXF 393 renal) 0.242 µM | GI50 (SF-539 CNS) 0.208 µM | GI50 (SNB-75 CNS) 0.11 µM | GI50 (SR leukemia) 0.135 µM
0.388 µM and 0.981 µM: TGI (HL-60(TB) leukemia)
24.6 µM: TGI (NCI/ADR-RES ovarian)
21.8 µM: TGI (SF-295 CNS)
50.2 µM: TGI (HCT-116 colon)
46.2 µM: TGI (HOP-92 NSCLC)
0.698 µM and 6.37 µM: TGI (RXF 393 renal)
0.548 µM and 1.03 µM: TGI (SF-539 CNS)
4.11 µM: TGI (SK-MEL-5 melanoma)
> 56.2 µM: TGI (T-47D breast)
3.5 µM and 11.8 µM: TGI (CCRF-CEM leukemia)
> 38 µM: TGI (KM12 colon)
> 100 µM: TGI (CAKI-1 renal) | TGI (DLD-1 colon) | TGI (HOP-18 NSCLC) | TGI (HS 578T breast) | TGI (LXFL 529 NSCLC) | TGI (M19-MEL melanoma) | TGI (MALME-3M melanoma) | TGI (SN12C renal) | TGI (SNB-78 CNS) | TGI (UACC-257 melanoma) | TGI (UACC-62 melanoma)
15.2 µM: TGI (HT29 colon)
39.8 µM: TGI (U251 CNS)
6.71 µM: TGI (A498 renal)
53.4 µM: TGI (NCI-H23 lung)
> 46.4 µM: TGI (BT-549 breast) | TGI (SK-MEL-2 melanoma)
> 68.1 µM: TGI (ACHN renal) | TGI (EKVX NSCLC) | TGI (HCT-15 colon) | TGI (OVCAR-4 ovarian) | TGI (OVCAR-8 ovarian) | TGI (SF-268 CNS) | TGI (TK-10 renal)
52.5 µM: TGI (MDA-MB-231 breast)
2.84 µM: TGI (MDA-MB-435)
> 63.1 µM: TGI (A549 NSCLC) | TGI (DU-145 prostate) | TGI (IGROV1 ovarian) | TGI (LOX IMVI melanoma) | TGI (M14 melanoma) | TGI (PC-3 prostate) | TGI (SK-MEL-28 melanoma) | TGI (UO-31 renal)
inactive: GI50 (A549 NSCLC) 0.584 µM | GI50 (DLD-1 colon) 0.527 µM | GI50 (DMS 114 small cell lung) 0.478 µM | GI50 (HCC-2998 colon) 1.1 µM | GI50 (HOP-92 NSCLC) 5.5 µM | GI50 (LOX IMVI melanoma) 0.582 µM | GI50 (LXFL 529 NSCLC) 0.658 µM | GI50 (M14 melanoma) 0.428 µM | GI50 (M19-MEL melanoma) 2.51 µM | GI50 (MALME-3M melanoma) 2.22 µM | GI50 (MOLT-4 leukemia) 0.533 µM | GI50 (NCI-H226 lung) 1.88 µM | GI50 (NCI-H23 lung) 2.51 µM | GI50 (OVCAR-4 ovarian) 3.45 µM | GI50 (OVCAR-5 ovarian) 2.61 µM | GI50 (OVCAR-8 ovarian) 0.614 µM | GI50 (RPMI-8226 leukemia) 0.517 µM | GI50 (SN12C renal) 0.578 µM | GI50 (SNB-19 CNS) 0.749 µM | GI50 (TK-10 renal) 0.984 µM | GI50 (U251 CNS) 0.436 µM | GI50 (UO-31 renal) 0.584 µM | GI50 (XF 498 CNS) 0.894 µM
27.3 µM: TGI (K-562 leukemia)
0.796 µM: TGI (KM20L2 colon)
> 81.5 µM: TGI (SNB-19 CNS)
0.428 µM and 0.555 µM: TGI (SNB-75 CNS)
